How the values were obtained:
[1] = test system: main artery (arterial endothelium); test: analysis for fatty streak in the main artery of rabbits; type: in vivo, New Zealand White rabbits; settings: for Fatty streak (proportion of stained region to total arterial area): 1% cholesterol diet plus 0.1% compound (Lovastatin 1 mg/kg), Control 35 ± 14; for layer of macrophage-lipid complex on the arterial endothelium: FIGS. 1B and 1C, control: thick layer
Experimental: (§1) 30 three-month-old male New Zealand White rabbits (Yeonam Horticulture and Animal Husbandry College, Korea), each weighing about 2.5 to 2.6 kg, were raised under a condition of temperature 20+2° C., relative humidity 55±5%, and photoperiod 12L/12D. The rabbits were divided into 5 groups and 5 groups of rabbits were fed with 5 different diets, i.e., RC4 diet (Oriental Yeast Co., Japan) containing 1% cholesterol (Control group, 1); 1% cholesterol plus 1 mg/kg Lovastatin® (Merck, U.S.A.) (Lovastatin® group, 2); 1% cholesterol plus 0.1% tannin (3); 1% cholesterol plus 0.1% gallic acid (4); and 1% cholesterol plus 0.1% ellagic acid (5), respectively. RC4 diet comprises 7.6% moisture, 22.8% crude protein, 2.8% crude fat, 8.8% crude ash, 14.4% crude cellulose and 43.6% soluble nitrogen-free substances. Tannin, gallic acid and ellagic acid were purchased from Sigma Chemical Co. (St. Louis, Mo.).
(§2) The rabbits were fed for 6 weeks while being allowed free access to the diets and water.
(Step 3) Analysis for fatty streak in the main artery
The chest of each of the rabbits sacrificed in Step 2 was incised. The downward portion of the main artery from the site 1 cm above the aortic valve was cut out in a length of about 5 cm and the fat surrounding the main artery was removed. The main artery was incised in the middle along the longitudinal axis and pinned to a dish. The moist artery was photographed and, then, the staining of fatty streaks was carried out in accordance with the method of Esper, E., et al. (J. Lab. Clin. Med., 121, 103-110 (1993)) as follows.
A part of the incised main artery was washed three times with anhydrous propylene glycol for 2 min. and stained for 30 min. with a saturated solution of Oil Red O (ORO, Sigma Co.) dissolved in propylene glycol. Thereafter, the artery was washed twice with 85% propylene glycol for 3 min. to remove remaining staining solution and, then washed with physiological saline. The artery was photographed and the photograph was traced. The area of stained region (fatty streak region) was determined with an image analyzer (LEICA, Q-600, Germany) and its proportion (%) to the total arterial area was calculated.
FIGS. 1A, 1B and 1C show the arteries of the rabbits administered with 1% cholesterol (Control group); 1% cholesterol plus 1 mg/kg Lovastatin® (Lovastatin® group); 1% cholesterol plus 0.1% ellagic acid, respectively.

[2] = chemical analysis of blood of rabbits fed a high-cholesterol diet; type: in vivo, New Zealand White rabbits; settings: for TG (triglyceride): Control 56 ± 38; for TC (total cholesterol): Control 1143 ± 260
Experimental: Effect of Tannin, Gallic acid or Ellagic acid in an Animal
(Step 1) Administration of tannin, gallic acid or ellagic acid to rabbits
as §1, §2
(Step 2) Chemical Analysis of Blood
After six weeks, the rabbits were anesthetized with an intramuscular injection of ketamine (50 mg/kg) in the femoral region and sacrificed. A blood sample was taken from the heart of each rabbit, allowed to stand for 2 hours and centrifuged at 3,000 rpm for 15 minutes and the supernatant serum was separated and stored in a freezer before use.
The chemical analysis of blood was carried out by employing a blood chemical analyzer (CIBA Corning 550 Express, USA) to determine the changes in GOT, GPT, γGTP, total cholesterol, HDL-cholesterol and triglyceride levels.

[3] = test system: liver cells around the central vein; test: fatty liver: proportion of abnormal fat-containing cells in the liver of rabbits; type: in vivo, New Zealand White rabbits; settings: for A: Proportion of abnormal fat-containing liver cells (grade): 1% cholesterol diet plus 0.1% compound (Lovastatin 1 mg/kg), mean of grades 1+ to 4+, Control 3.2 ± 0.3; for microscopic features of the liver: FIGS. 2B and 2C, around the central vein
Experimental: as §1, §2
(Step 5) Prevention of Hepatic Diseases

[4] = test system: LDL receptor in the liver; settings: Farmer, J. A., et al. (1995), cited from earlier work; for plasma LDL cholesterol level: by enhancing the activity of LDL receptor in the liver
[5] = rabbits, 1% cholesterol diet plus 0.1% compound (Lovastatin 1 mg/kg), 6 weeks

Structure (SMILES)	Fatty streak (proportion of stained region to total arterial area) ([1]; 6 weeks) [%]	plaque formation in the endothelium of the main artery ([1]; 6 weeks)	layer of macrophage-lipid complex on the arterial endothelium ([1]; 6 weeks)	deposition of macrophages on the arterial endothelium ([1]; blood cholesterol level high)	effect on the liver function (adverse) ([2]; rabbit, in vivo)	TG (triglyceride) [2, 5] [mg/dL]	TC (total cholesterol) [2, 5] [mg/dL]	lipid metabolism and liver function ([2]; rabbits, 6 weeks)	A: Proportion of abnormal fat-containing liver cells (grade) ([3]; 6 weeks)	inhibition of the formation of fatty liver ([3]; 1% cholesterol diet, 6 weeks)	microscopic features of the liver [3]	side effects [4]	plasma LDL cholesterol level [4]	γGTP ([2]; rabbits, 1% cholesterol diet plus 0.1% compound (Lovastatin 1 mg/kg), 6 weeks, Control 4.2 ± 0.9) [IU/l]	GPT ([2]; rabbits, 1% cholesterol diet plus 0.1% compound (Lovastatin 1 mg/kg), 6 weeks, Control 65 ± 9) [IU/l]	GOT ([2]; rabbits, 1% cholesterol diet plus 0.1% compound (Lovastatin 1 mg/kg), 6 weeks, Control 77 ± 8) [IU/l]
O=c1oc2c(O)c(O)cc3c(=O)oc4c(O)c(O)cc1c4c23 [Ellagic acid, ellagic acid]	9 ± 2	inhibit	no or very thin layers of macrophage-lipid complex	strongly inhibit	do not adversely affect on the liver function	25 ± 10	1000 ± 105	can improve	2.7	significantly inhibit the formation of fatty liver	almost all liver cells are of a normal shape					
CC[C@H](C)C(=O)O[C@H]1C[C@@H](C)C=C2C=C[C@H](C)[C@H](CC[C@@H]3C[C@@H](O)CC(=O)O3)[C@H]21 [Lovastatin®, reference compound]	5		no or very thin layers of macrophage-lipid complex			66 ± 17	1210 ± 263		3.4 ± 0.5		many cells containing excessive fat were observed around the central vein	increase in creatine kinase in the liver and rhabdomyolysis	may reduce the plasma LDL cholesterol level	12.4 ± 0.8	73 ± 9	125 ± 19
CCC(C)(C)C(=O)O[C@H]1C[C@@H](C)C=C2C=C[C@H](C)[C@H](CC[C@@H]3C[C@@H](O)CC(=O)O3)[C@H]21 [Simvastatin®]													may reduce the plasma LDL cholesterol level			

— patent US6133311A, “Method for preventing or treating elevated blood lipid level-related diseases by administering natural phenolic compounds” (priority 1998, dated 2000)
